Measurements as given in patent US4531001A, “2-β-D-ribofuranosylselenazole-4-carboxamide compounds” (priority 1983, dated 1985).
Values after ≈ are worked out from the molar mass of the structure shown. Values joined by “and” are separate entries in the source; they are usually repeats but may differ in a detail not shown here. Equal values may be shown once. “Also recorded” adds a separate entry of the source. Read-outs that look alike come from different tables or passages of the source.

Columns and labels:
[1] = system: DNA and RNA viruses; assay: Antiviral activity against the DNA and RNA virus panel; assay type: cell-based
Source text: (§1) Microbiol. 22, 797 (1971). A virus rating that is greater than 1.0 indicates definite antiviral activity. […] The results reported below were obtained by testing on Microtest II (Falcon Plastics) plastic panels with a monolayer of Vero or HeLa cells.

[2] = system: MRC-5 cells; assay: Toxicity to MRC-5 cells; conditions: 1000 ug/ml (highest concentration tested)
[3] = system: Lewis lung carcinoma; assay: Antitumor activity against Lewis lung carcinoma, Example 12 (Table 1); assay type: in vivo, B6 D2 F1 male mice; conditions: for Treated Group Survival Time: median, control 19.0, 60-day test
Protocol: As illustrative examples of the antitumor use of COMPOUNDS 1 and 2, Examples 12 through 14, below, are given. […] The tests utilized in these illustrative examples were conducted by the Developmental Therapeutics Program, Division of Cancer Treatment, National Cancer Institute. The tests were supervised by this agency utilizing their standard protocols and procedures. All tests conformed to these protocols and all tests were evaluated under the criteria defined by these protocols. The following representative examples illustrate confirmed activity of the illustrative compounds of the invention against screening tumor systems of the National Cancer Institute.
For purposes of the following examples, the abbreviation IP stands for intraperitoneal and IV stands for intravenous. The mean and median survival times are calculated in instruction 14 (revised 6/78) of the Screening Data Summary, Developmental Therapeutics Program, Division of Cancer Treatment, National Cancer Institute. The contents of this Screening Data Summary including appropriate revisions are herein incorporated by reference.
In the illustrated examples below, the vehicle used as carrier for the drug was injected (minus any drug therein) into the control animals at the same level of use of the vehicle in the drug treated animals in order to eliminate any vehicle effect of the tests.
For example 12, B6 D2 F1 male mice were used and challenged with Lewis lung carcinoma. The median survival time of the test animals was compared to that of appropriate control animals.
In Example 12, forty control animals and ten test animals were used, each at dose levels indicated below in Table 1. For both the control group and the drug treated group, tumors were induced by IV injection on day zero followed by initiation of drug treatment on day one. For Example 12 water was used as the drug vehicle.
In both the control group and the drug treated group in Example 12, the animals were inoculated on day zero with a homogenate of 10^6 seed cells of Lewis lung carcinoma. For Example 12, drug treatment was started on day one and COMPOUND 1 given once daily for nine days. Day five was utilized as the cut-off date for deaths attributable to toxicity of the drug. […] Efficacy of treatment was determined by comparing median survival time of the control animals and is expressed as percentage increase of treated animals/control animals (T/C).
The test period was for sixty days and at the end of the sixty day period all animals surviving in the test groups were evaluated as either cured, no-takes, or tumor survivors.
In this example, the drug tested animals were injected IP with the dose level noted in Table I below. Ten animals were treated at each dose level. No control animals survived beyond day 23 with a median death rate of day 19.0.

[4] = system: Hela cells; assay: Toxicity to Hela cells; conditions: 1000 ug/ml (highest concentration tested)
[5] = system: L-1210; assay: Growth inhibition in suspension cell culture, L-1210; assay type: cell-based; conditions: Mus musculus, L1210, 72 hours, cell count 50 percent of untreated control, read-out: ID50 (the source's name)
Protocol: (§2) In further tests, growth-inhibitory effects of COMPOUND 1 and COMPOUND 2 were measured against 3 mouse tumor lines in suspension cell culture. Cell cultures were initiated at a density of 50,000 cells/ml in medium RPMI 1630 supplemented with 10 percent fetal calf serum. Composition of this culture medium and details of the culture procedure followed the published method (G. E. Moore, A. A. Sandberg and K. Ulrich, Suspension Cell Culture and in vivo and in-vitro chromosome constitution of mouse leukemia L1210, Journal of the National Cancer Institute 36, 405-415, 1966). Cultures were maintained at 37 degrees in stationary suspension culture under a 95 percent air+5 percent CO2 atmosphere. Test compounds were added to treated cultures at the time of initiation, and were present continually. After 72 hours, 40-fold dilutions of drug-treated and untreated control cultures were prepared in 0.9 percent NACl solution, and cells were counted on an electronic particle counter. The growth-inhibitory effects are expressed as ID50 values, namely, test compound inhibitory dosages or concentrations required to decrease cell count in treated cultures to 50 percent of the cell count of untreated control cultures.

[6] = system: B16 Melanoma; assay: Growth inhibition in suspension cell culture, B16 Melanoma; assay type: cell-based; conditions: Mus musculus, 72 hours, cell count 50 percent of untreated control, read-out: ID50 (the source's name)
Protocol: as §2

[7] = system: Cox B4; assay: Antiviral activity (virus rating method); assay type: cell-based; conditions: for Virus Rating: >1.0 definite, 0.5-0.9 moderate, <0.5 slight or no activity
Source text: as §1

[8] = system: Para 3; assay: Antiviral activity (virus rating method); assay type: cell-based; conditions: for Virus Rating: >1.0 definite, 0.5-0.9 moderate, <0.5 slight or no activity; for EC50: read-out: ED50 (the source's name)
Source text: as §1

[9] = system: VV; assay: Antiviral activity (virus rating method); assay type: cell-based; conditions: for Virus Rating: >1.0 definite, 0.5-0.9 moderate, <0.5 slight or no activity; for EC50: read-out: ED50 (the source's name)
Source text: as §1

[10] = 3 mg/kg IP once daily for nine days
[11] = 6 mg/kg IP once daily for nine days
[12] = 9 mg/kg IP once daily for nine days
[13] = 13 mg/kg IP once daily for nine days
[14] = 20 mg/kg IP once daily for nine days
[15] = 33 mg/kg IP once daily for nine days
[16] = 50 mg/kg IP once daily for nine days
[17] = 75 mg/kg IP once daily for nine days

NC(=O)c1c[se]c([C@@H]2O[C@H](CO)[C@@H](O)[C@H]2O)n1 [COMPOUND 1, 2-β-D-ribofuranosylselenazole-4-carboxamide]
antiviral activity in words ([1]; DNA and RNA viruses, Vero or HeLa cells): showed activity against both small and large viruses of both DNA and RNA types; also recorded: good broad spectrum antiviral activity against both DNA and RNA viruses | inhibition of viral cytopathic effects in words ([1]; cell culture, representative viruses): inhibits viral cytopathic effects in cell culture for representative viruses at extremely low dosage | toxicity to cells [2]: non-toxic | Cures [3, 10]: One and 1/10 | Percent Treated Animal/Control Animal (T/C) [3, 10]: 152% | Treated Group Survival Time [3, 10]: 28.9 | Cures [3, 11]: 1/10 | Treated Group Survival Time [3, 11]: 12.0 | Cures [3, 12]: 3/10 | Treated Group Survival Time [3, 12]: 10.4 | Cures [3, 13]: 5 out of 10 and 5/10 | Percent Treated Animal/Control Animal (T/C) [3, 13]: 315% | Treated Group Survival Time [3, 13]: 60.0 | Cures [3, 14]: 2/10 | Treated Group Survival Time [3, 14]: 16.0 | Cures [3, 15]: 3/10 | Percent Treated Animal/Control Animal (T/C) [3, 15]: 94% | Treated Group Survival Time [3, 15]: 18.0 | Cures [3, 16]: 1/10 | Percent Treated Animal/Control Animal (T/C) [3, 16]: 94% | Treated Group Survival Time [3, 16]: 18.0 | Cures [3, 17]: 7 out of 10 and 7/10 | Percent Treated Animal/Control Animal (T/C) [3, 17]: 315% | Treated Group Survival Time [3, 17]: 60.0 | survival of treated animals in words ([3]; 75 and 13 mg/kg IP): all of the treated animals survived | antitumor activity in words ([3]; Lewis lung carcinoma, mice): active against Lewis lung carcinoma; also recorded: outstanding activity against Lewis lung carcinoma | mortality attributable to drug toxicity ([3]; cut-off day five, 3-75 mg/kg IP once daily): no mortality attributable to drug toxicity | DN2 criteria of NCI ([3]; mouse, in vivo): successfully passed the DN (decision network) 2 criteria; also recorded: DN2 criteria of NCI were passed | toxicity to cells [4]: non-toxic | IC50 [5]: 0.4 µM | IC50 [6]: 3.5 µM | antiviral activity in words ([7]; HeLa cells, Picornaviridae (Cox B4)): Excellent antiviral activity | Virus Rating ([7]; HeLa): 2.3 | EC50 ([7]; HeLa, read-out: ED50 (the source's name)): 6 mg/L (≈ 19.5 µM) | EC50 ([7]; Vero, read-out: ED50): 1000 mg/L (≈ 3260 µM) | Virus Rating ([7]; Vero): 0.0 | Virus Rating ([8]; HeLa): 2.2 | EC50 ([8]; HeLa): 1 mg/L (≈ 3.26 µM) | type of antiviral activity ([8]; Para-3, depending upon cell line): virusstatic | Virus Rating ([8]; Vero): 2.6 | EC50 ([8]; Vero): 1 mg/L (≈ 3.26 µM) | Virus Rating ([9]; HeLa): 2.4 | EC50 ([9]; HeLa): 2 mg/L (≈ 6.51 µM) | type of antiviral activity ([9]; Vaccinia, depending upon cell line): virucidal | Virus Rating ([9]; Vero): 2.1 | EC50 ([9]; Vero): 3 mg/L (≈ 9.77 µM)
